According to paper PMC9322314 (2022):

What was measured:
[1] = test system: FdxT (DNA, hairpin, hexaethyleneglycol (HEG) loop between 9 and 10) TATAGCTATATAGCTATA; experiment: FRET melting; details: 10 mM K+, 90 mM Li+; 10 mM Li cacodylate pH 7.2, 0.2 μM DNA, 2 μM compound
[2] = test system: 22AG (DNA, G4) AGGGTTAGGGTTAGGGTTAGGG; experiment: CD titration, Hill fit; details: 10 mM Li cacodylate pH 7.2, 3 μM DNA
[3] = test system: 22AG (32P-labelled) (DNA, G4) AGGGTTAGGGTTAGGGTTAGGG; experiment: photoalkylation (365 nm), denaturing PAGE; details: 100 mM K+; covalent; 10 mM Li cacodylate pH 7.2, 10 μM DNA, 20 μM compound
[4] = test system: Pu24T (32P-labelled) (DNA, G4) TGAGGGTGGTGAGGGTGGGGAAGG; experiment: photoalkylation (365 nm), denaturing PAGE; details: 100 mM K+; covalent; 10 mM Li cacodylate pH 7.2, 10 μM DNA, 20 μM compound
[5] = test system: F21T (DNA, G4) GGGTTAGGGTTAGGGTTAGGG; experiment: FRET melting; details: 10 mM K+, 90 mM Li+; 10 mM Li cacodylate pH 7.2, 0.2 μM DNA, 20 μM compound
[6] = test system: F(Pu24T)T (DNA, G4) TGAGGGTGGTGAGGGTGGGGAAGG; experiment: FRET melting; details: 1 mM K+, 99 mM Li+; 10 mM Li cacodylate pH 7.2, 0.2 μM DNA, 20 μM compound
[7] = test system: F(c-Myc)T (DNA, G4) TTGAGGGTGGGTAGGGTGGGTAA; experiment: FRET melting; details: 1 mM K+, 99 mM Li+; 10 mM Li cacodylate pH 7.2, 0.2 μM DNA, 2 μM compound
[8] = test system: F(c-Kit2)T (DNA, G4) GGGCGGGCGCGAGGGAGGGG; experiment: FRET melting; details: 1 mM K+, 99 mM Li+; 10 mM Li cacodylate pH 7.2, 0.2 μM DNA, 2 μM compound
[9] = test system: F(21CTA)T (DNA, G4) GGGCTAGGGCTAGGGCTAGGG; experiment: FRET melting; details: 10 mM K+, 90 mM Li+; 10 mM Li cacodylate pH 7.2, 0.2 μM DNA, 2 μM compound
[10] = test system: F(CEB25wt)T (DNA, G4) AAGGGTGGGTGTAAGTGTGGGTGGGT; experiment: FRET melting; details: 1 mM K+, 99 mM Li+; 10 mM Li cacodylate pH 7.2, 0.2 μM DNA, 2 μM compound

SMILES: C[N+](C)(C)Cc1ccc(C#Cc2cccc(C#Cc3ccc(C[N+](C)(C)C)c(O)c3)c2)cc1O
- binding [1]: no
- binding ([2]; 100 mM K+): yes
- binding ([2]; 100 mM Na+): yes
- binding [3]: yes
- binding [4]: yes

SMILES: CN(C)Cc1ccc(C#Cc2cccc(C#Cc3ccc(CN(C)C)c(O)c3)c2)cc1O
- binding [1]: no
- binding ([2]; 100 mM K+): yes
- binding ([2]; 100 mM Na+): yes

SMILES: CN(C)Cc1cc(C#Cc2cccc(C#Cc3ccc(O)c(CN(C)C)c3)c2)ccc1O
- binding [1]: no
- binding ([2]; 100 mM K+): yes
- binding ([2]; 100 mM Na+): yes
- binding [3]: yes
- binding [4]: yes

SMILES: C[N+](C)(C)Cc1cc2cc(C#Cc3cccc(C#Cc4ccc5cc(O)c(C[N+](C)(C)C)cc5c4)c3)ccc2cc1O
- ΔT 1/2 [5]: 33.3 °C
- ΔT 1/2 [6]: 29.0 °C
- binding [7]: yes
- binding [8]: weak
- binding [9]: weak
- binding [10]: weak
- binding [1]: no
- binding ([2]; 100 mM K+): yes
- binding ([2]; 100 mM Na+): yes

SMILES: C[N+](C)(C)Cc1cc(C#Cc2cccc(C#Cc3ccc(O)c(C[N+](C)(C)C)c3)c2)ccc1O
- binding [1]: no
- binding ([2]; 100 mM K+): yes
- binding ([2]; 100 mM Na+): yes
- binding [3]: yes
- binding [4]: yes

SMILES: CN(C)Cc1cc2cc(C#Cc3cccc(C#Cc4ccc5cc(O)c(CN(C)C)cc5c4)c3)ccc2cc1O
- binding [1]: no
- binding ([2]; 100 mM K+): yes
